In patent US20240246937A1 (MERCK SHARP & DOHME LLC, priority 2021, published 2024) one finds EC50 data, which are given here for 27 compounds.

This assay deals with recombinant IL4I1 (Homo sapiens (Human), UniProt Q96RQ9). As to the kind of experiment: IL4I1 Enzymatic Assay (Amplex Red/HRP coupled fluorescence detection of H2O2). In kind it is biochemical. Conditions: 240 min; recombinant IL4I1, four-hour pre-incubation with compound. The procedure, abridged:
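Recombinant human IL4I1 (1 nM final) pre-incubated 4 h with compound at ambient temperature in 50 mM Hepes pH 7.0, 0.005% Tween20. Started with 1 mM each Phe/Tyr/Trp plus Amplex Red/HRP; H2O2-derived resorufin fluorescence read after 120 min; EC50 from ten-point 1:3 titration, four-parameter fit.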

Chain of recombinant IL4I1 (Q96RQ9 22-567): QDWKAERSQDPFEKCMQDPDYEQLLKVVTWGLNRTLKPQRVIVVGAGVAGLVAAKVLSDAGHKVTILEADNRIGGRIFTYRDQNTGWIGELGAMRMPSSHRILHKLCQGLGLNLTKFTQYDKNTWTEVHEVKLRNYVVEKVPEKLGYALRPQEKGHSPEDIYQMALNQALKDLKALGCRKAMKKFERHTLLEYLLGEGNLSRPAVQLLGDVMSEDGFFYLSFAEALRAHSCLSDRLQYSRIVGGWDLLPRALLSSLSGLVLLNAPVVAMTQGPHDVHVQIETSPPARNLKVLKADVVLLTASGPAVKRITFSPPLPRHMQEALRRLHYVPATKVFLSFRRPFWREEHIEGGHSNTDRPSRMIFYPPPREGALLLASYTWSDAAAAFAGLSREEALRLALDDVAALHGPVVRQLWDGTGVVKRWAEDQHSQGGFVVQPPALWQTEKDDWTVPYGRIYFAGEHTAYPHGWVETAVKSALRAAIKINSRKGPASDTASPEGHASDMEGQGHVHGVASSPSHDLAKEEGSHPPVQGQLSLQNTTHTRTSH

By EC50 is commonly meant the concentration giving half of the maximal effect. As for `O=c1c(=O)n(C2CCC2)ccn1Cc1cc(-c2ccccc2)sn1` [Example 173, 1-cyclobutyl-4-((5-phenylisothiazol-3-yl)methyl)-1,4-dihydropyrazine-2,3-dione], the half-maximal effective concentration (EC50) amounted to 14 nM.

For `O=C1C(=O)N(C2CCC2)CCN1Cc1cn(-c2ccccc2)cn1` [Example 174, 1-cyclobutyl-4-((1-phenyl-1H-imidazol-4-yl)methyl)piperazine-2,3-dione], the EC50 worked out at 39 nM.

As for `O=c1c(=O)n(C2CCC2)ccn1Cc1cn(-c2ccccc2)cn1` [Example 175, 1-cyclobutyl-4-((1-phenyl-1H-imidazol-4-yl)methyl)-1,4-dihydropyrazine-2,3-dione], the EC50 was 14 nM.

Take `O=C1C(=O)N(C2CCC2)CCN1Cc1ccc(-n2ncnn2)cn1` [Example 176, 1-((5-(2H-tetrazol-2-yl)pyridin-2-yl)methyl)-4-cyclobutylpiperazine-2,3-dione]: the concentration for a half-maximal effect (EC50) was found to be 40 nM.

Turning to `O=C1C(=O)N(C2CCC2)CCN1CC12CC(c3ccccn3)(C1)C2` [Example 177, 1-cyclobutyl-4-((3-(pyridin-2-yl)bicyclo[1.1.1]pentan-1-yl)methyl)piperazine-2,3-dione], the EC50 stood at 84 nM.

`CC1CN(Cc2ccc(-n3nccn3)cn2)C(=O)C(=O)N1C1CCC1` (stereo not drawn) [Example 178, 1-((5-(2H-1,2,3-triazol-2-yl)pyridin-2-yl)methyl)-4-cyclobutyl-5-methylpiperazine-2,3-dione]: the EC50 worked out at 52 nM.

Regarding `O=C1C(=O)N(C23CC(C2)C3)CCN1Cc1nnc(-c2ccccc2Cl)s1` [Example 179, 1-(bicyclo[1.1.1]pentan-1-yl)-4-((5-(2-chlorophenyl)-1,3,4-thiadiazol-2-yl)methyl)piperazine-2,3-dione], the EC50 turned out to be 13 nM.

Consider `CC1(n2ccn(Cc3cc(-c4ccccc4)no3)c(=O)c2=O)CCC1` [Example 181, 1-(1-methylcyclobutyl)-4-((3-phenylisoxazol-5-yl)methyl)-1,4-dihydropyrazine-2,3-dione], for which the EC50 was determined as 10 nM.

For `O=C1C(=O)N(C2CC3CC2C3)CCN1Cc1ccc(-c2ccccc2)nn1` (stereo not drawn) [Example 183, 1-(bicyclo[2.1.1]hexan-2-yl)-4-((6-phenylpyridazin-3-yl)methyl)piperazine-2,3-dione], the EC50 worked out at 24 nM.

For the compound `O=C1C(=O)N(C2CC3CC2C3)CCN1Cc1ccc(-c2ccccc2F)nn1` (stereo not drawn) [Example 184, 1-(bicyclo[2.1.1]hexan-2-yl)-4-((6-(2-fluorophenyl)pyridazin-3-yl)methyl)piperazine-2,3-dione], the EC50 came out at 25 nM.

Consider `CC1(N2CCN(Cc3cc(-c4cccc(F)c4)no3)C(=O)C2=O)CCC1` [Example 185, 1-((3-(3-fluorophenyl)isoxazol-5-yl)methyl)-4-(1-methylcyclobutyl)piperazine-2,3-dione], for which the EC50 is 8 nM.

As for `CC1(n2ccn(Cc3cc(-c4cccc(F)c4)no3)c(=O)c2=O)CCC1` [Example 186, 1-((3-(3-fluorophenyl)isoxazol-5-yl)methyl)-4-(1-methylcyclobutyl)-1,4-dihydropyrazine-2,3-dione], the EC50 was 4 nM.

For `O=c1c(=O)n(C23CC(C2)C3)ccn1Cc1cc(-c2nccs2)on1` [Example 187, 1-(bicyclo[1.1.1]pentan-1-yl)-4-((5-(thiazol-2-yl)isoxazol-3-yl)methyl)-1,4-dihydropyrazine-2,3-dione], the EC50 is 8 nM.

In the case of `CC1(N2CCN(Cc3cc(-c4ccc(F)cc4)no3)C(=O)C2=O)CCC1` [Example 188, 1-((3-(4-fluorophenyl)isoxazol-5-yl)methyl)-4-(1-methylcyclobutyl)piperazine-2,3-dione], the 50% effective concentration (EC50) is 10 nM.

On to `CC1(n2ccn(Cc3cc(-c4ccc(F)cc4)no3)c(=O)c2=O)CCC1` [Example 189, 1-((3-(4-fluorophenyl)isoxazol-5-yl)methyl)-4-(1-methylcyclobutyl)-1,4-dihydropyrazine-2,3-dione], for which the EC50 came out at 4 nM.

In the case of `CC1(N2CCN(CC34CC(c5ccccc5)(C3)C4(F)F)C(=O)C2=O)CCC1` [Example 190, 1-((2,2-difluoro-3-phenylbicyclo[1.1.1]pentan-1-yl)methyl)-4-(1-methylcyclobutyl)piperazine-2,3-dione], the EC50 amounted to 31 nM.

For the compound `O=C1C(=O)N(C23CC(C2)C3)CCN1CC12CC(c3ccccc3)(C1)C2(F)F` [Example 191, 1-(bicyclo[1.1.1]pentan-1-yl)-4-((2,2-difluoro-3-phenylbicyclo[1.1.1]pentan-1-yl)methyl)piperazine-2,3-dione], the half-maximal effective concentration (EC50) amounted to 35 nM.

In the case of `O=c1c(=O)n(C2CCC2)ccn1Cc1ccc(-c2c(F)cccc2F)nn1` [Example 192, 1-cyclobutyl-4-((6-(2,6-difluorophenyl)pyridazin-3-yl)methyl)-1,4-dihydropyrazine-2,3-dione], the EC50 stood at 13 nM.

For `O=c1c(=O)n(C23CC(C2)C3)ccn1Cc1ccc(-c2ccccc2F)nn1` [Example 193, 1-(bicyclo[1.1.1]pentan-1-yl)-4-((6-(2-fluorophenyl)pyridazin-3-yl)methyl)-1,4-dihydropyrazine-2,3-dione], the 50% effective concentration (EC50) came out at 8 nM.

Consider `O=C1C(=O)N(C2(CF)CC2)CCN1Cc1nnc(-c2ccccc2F)s1` [Example 194, 1-(1-(fluoromethyl)cyclopropyl)-4-((5-(2-fluorophenyl)-1,3,4-thiadiazol-2-yl)methyl)piperazine-2,3-dione], for which the concentration for a half-maximal effect (EC50) is 41 nM.

Regarding `O=C1C(=O)N(C2(CF)CC2)CCN1Cc1ccc(-c2ccccc2F)nn1` [Example 195, 1-(1-(fluoromethyl)cyclopropyl)-4-((6-(2-fluorophenyl)pyridazin-3-yl)methyl)piperazine-2,3-dione], the EC50 stood at 48 nM.

As to `O=C1C(=O)N(C2(CF)CC2)CCN1Cc1cc(-c2ccccc2)no1` [Example 196, 1-(1-(fluoromethyl)cyclopropyl)-4-((3-phenylisoxazol-5-yl)methyl)piperazine-2,3-dione], the EC50 was determined as 11 nM.

In the case of `CC1(n2ccn(Cc3ccc(-c4ccccc4F)nn3)c(=O)c2=O)CC1` [Example 197, 1-((6-(2-fluorophenyl)pyridazin-3-yl)methyl)-4-(1-methylcyclopropyl)-1,4-dihydropyrazine-2,3-dione], the concentration giving a half-maximal response (EC50) turned out to be 33 nM.

As for `N#CC1(n2ccn(Cc3ccc(-c4ccccc4F)nn3)c(=O)c2=O)CC1` [Example 198, 1-(4-((6-(2-fluorophenyl)pyridazin-3-yl)methyl)-2,3-dioxo-3,4-dihydropyrazin-1(2H)-yl)cyclopropane-1-carbonitrile], the concentration for a half-maximal effect (EC50) was 76 nM.

With `CC1(n2ccn(Cc3cc(-c4ccccn4)no3)c(=O)c2=O)CC1` [Example 199, 1-(1-methylcyclopropyl)-4-((3-(pyridin-2-yl)isoxazol-5-yl)methyl)-1,4-dihydropyrazine-2,3-dione], the EC50 was found to be 24 nM.

For the compound `N#CC1(n2ccn(Cc3cc(-c4ccccn4)no3)c(=O)c2=O)CC1` [Example 200, 1-(2,3-dioxo-4-((3-(pyridin-2-yl)isoxazol-5-yl)methyl)-3,4-dihydropyrazin-1(2H)-yl)cyclopropane-1-carbonitrile], the EC50 amounted to 68 nM.

For the compound `O=c1c(=O)n(C23CC(F)(C2)C3)ccn1Cc1ccc(-c2ccccc2F)nn1` [Example 201, 1-(3-fluorobicyclo[1.1.1]pentan-1-yl)-4-((6-(2-fluorophenyl)pyridazin-3-yl)methyl)-1,4-dihydropyrazine-2,3-dione], the EC50 was found to be 30 nM.
